Laboratory results from patent US20110190280A1, “Thiazole And Oxazole Kinase Inhibitors” (priority 2007, published 2011).

How the values were obtained:
Colo205 tumor cells = test: Cell growth inhibition assay (CellTiter-Glo), Colo205; settings: Homo sapiens, COLO 205, 72 h, read-out: Activity in Colo205 Tumor Cells;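 further: growth measured via total ATP luminescence (CellTiter-Glo) as a proxy for cell number, inhibition expressed against DMSO-treated control wells, 3-day exposure at 0.2% final DMSO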
Experimental: Cell Growth Inhibition Assays Human colon tumor cells (Colo205) were cultured in RPMI (Mediatech 50-020-PB) containing 10% FBS and 1% penicillin-streptomycin. […] Human melanoma cancer cells (A375-F11S) were cultured in RPMI (Mediatech 50-020-PB) containing 10% FBS, 1% sodium pyruvate, and 1% penicillin-streptomycin. Human colon cancer cells (HT-29) were cultured in high glucose DMEM (Mediatech 50-013-PB) containing 10% FBS and 1% penicillin-streptomycin. Human melanoma cancer cells (SK-MEL-3) were cultured in McCoy's 5A (50-025-PB) containing 15% FBS, and 1% penicillin-streptomycin. All cell lines were maintained at 37° C. in a humidified 5% CO2, 95% air incubator.
The next day, compounds were diluted as follows: For 96-well assays, 13.5 μl of compound in DMSO were diluted using nine (9) serial 1:3 dilutions of 4.5 μl in 9 μl of DMSO. Medium (270 μl/well of RPMI with 10% FBS and 1% penicillin-streptomycin) was added to the plates. Aliquots (7 μl) were added to cells in the final assay giving a final DMSO concentration of 0.2%. For 384-well assays, 15 μl of compound in DMSO were diluted using nine (9) serial 1:3 dilutions of 5 μl in 10 μl of DMSO, followed by a further dilution of 5 μl of compound with 95 μl of medium, of which 2 μl are added to cells in the final assay giving a final DMSO concentration of 0.2%. Cells were incubated at 37° C., 5% CO2 for 3 days.
Total ATP was measured (as a surrogate estimate of cell number) using CellTiter-Glo® (Promega G7571) reagent. Briefly, plates were removed from the incubator and allowed to equilibrate to room temperature for 30 minutes. CellTiter-Glo® (25 μl or 55 μl for 384-well or 96-well assays, respectively) reagent was added to each well and plates were shaken on an orbital plate shaker for 2 minutes. Plates were incubated without shaking for a further 30 minutes and read on an LJL Analyst GT reader in luminometer mode with an integration time of 0.5 seconds per well. Percent inhibition of cell growth was calculated relative to DMSO vehicle-treated control wells.

B-Raf = B-Raf (Homo sapiens, UniProt P15056); test: B-Raf Accelerated MEK ATPase assay (BRAMA); assay type: biochemical; settings: BRAMA enzyme assay; class by pIC50; read-out: B-Raf Activity
B-Raf, sequence (P15056 whole entry): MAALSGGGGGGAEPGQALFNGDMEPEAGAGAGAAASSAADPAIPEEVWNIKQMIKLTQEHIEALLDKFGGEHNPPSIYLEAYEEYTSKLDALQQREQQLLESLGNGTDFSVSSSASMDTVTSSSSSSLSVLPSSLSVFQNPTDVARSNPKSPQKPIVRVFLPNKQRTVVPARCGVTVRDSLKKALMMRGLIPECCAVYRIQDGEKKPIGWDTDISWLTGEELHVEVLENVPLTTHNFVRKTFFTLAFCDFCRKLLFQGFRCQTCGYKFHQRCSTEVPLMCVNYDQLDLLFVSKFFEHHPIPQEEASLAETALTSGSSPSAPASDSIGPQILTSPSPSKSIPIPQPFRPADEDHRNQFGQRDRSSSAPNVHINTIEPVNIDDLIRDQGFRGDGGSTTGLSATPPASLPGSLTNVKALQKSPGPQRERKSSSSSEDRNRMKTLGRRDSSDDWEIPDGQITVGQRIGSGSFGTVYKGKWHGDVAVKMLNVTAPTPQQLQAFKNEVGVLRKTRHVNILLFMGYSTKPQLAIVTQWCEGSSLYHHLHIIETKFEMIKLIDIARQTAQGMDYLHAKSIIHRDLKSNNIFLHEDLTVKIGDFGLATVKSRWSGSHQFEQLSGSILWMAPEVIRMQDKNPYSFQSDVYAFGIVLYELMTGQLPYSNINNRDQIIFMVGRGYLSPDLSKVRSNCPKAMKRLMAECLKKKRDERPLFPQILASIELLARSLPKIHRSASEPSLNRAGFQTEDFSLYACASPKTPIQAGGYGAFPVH
Experimental: Compounds of the present invention were tested for B-Raf […] inhibitory activity in a B-Raf Accelerated MEK ATPase assay (BRAMA). The BRAMA assay is a high sensitivity assay which measures an intrinsic MEK-mediated ATP hydrolysis uncoupled from downstream ERK phosphorylation by coupling the formation of ADP to NADH oxidation through the enzymes pyruvate kinase and lactate dehydrogenase. When ADP production is initiated by addition of catalytic amounts of an activated RAF enzyme and non-phosphorylated MEK, one observes robust ADP production concomitant with RAF-mediated phosphorylation of MEK. Specific details of the assay are disclosed in: C. Rominger, M. Schaber, E. May. Assay for B-Raf Activity Based on Intrinsic MEK ATPase Activity.

SK-MEL-28 tumor cells = test: Cell growth inhibition assay (CellTiter-Glo), SK-MEL-28; settings: Homo sapiens, SK-MEL-28, 72 h, read-out: Activity in SK-MEL-28 Tumor Cells;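 further: luminescent total ATP as a proxy for cell number, threefold serial dilutions at 0.2% DMSO, percent growth inhibition versus DMSO vehicle control wells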

SMILES: CCNc1nc(-c2cc(O)ccn2)c(-c2ccnc(Nc3ccc(OCCN4CCCC4)c(Cl)c3)n2)s1 [Example 97]
- IC50 (Colo205 tumor cells): > 5000 nM
- IC50 (B-Raf): 100 to 1000 nM
- IC50 (SK-MEL-28 tumor cells): > 5000 nM

SMILES: CCNc1nc(-c2ccnc(OC)c2)c(-c2ccnc(Nc3ccc(N4CCN(C)CC4)c(F)c3)n2)s1 [Example 111]
- IC50 (Colo205 tumor cells): 500 to 5000 nM
- IC50 (B-Raf): < 100 nM
- IC50 (SK-MEL-28 tumor cells): > 5000 nM

SMILES: CCNc1nc(-c2cc(OC)cc(OC)c2)c(-c2ccnc(Nc3ccc(CCN4CCOCC4)cc3)n2)o1 [Example 123]
- IC50 (Colo205 tumor cells): 500 to 5000 nM
- IC50 (B-Raf): < 100 nM
- IC50 (SK-MEL-28 tumor cells): > 5000 nM

SMILES: CCNc1nc(-c2cc(C)cc(OC)c2)c(-c2ccnc(Nc3ccc(N4CCOCC4)c(F)c3)n2)o1 [Example 101]
- IC50 (Colo205 tumor cells): < 500 nM
- IC50 (B-Raf): < 100 nM
- IC50 (SK-MEL-28 tumor cells): 500 to 5000 nM

SMILES: CCNc1nc(-c2cc(C)cc(OC)c2)c(-c2ccnc(Nc3ccc(N4CCN5CCCCC5C4)c(F)c3)n2)o1 (stereo not shown) [Example 132]
- IC50 (Colo205 tumor cells): 500 to 5000 nM
- IC50 (B-Raf): < 100 nM
- IC50 (SK-MEL-28 tumor cells): 500 to 5000 nM

SMILES: CCNc1nc(-c2cc(C)cc(OCC)c2)c(-c2ccnc(Nc3ccc(N4CCN(C)CC4)c(F)c3)n2)s1 [Example 39, 4-{2-(Ethylamino)-4-[3-(ethyloxy)-5-methylphenyl]-1,3-thiazol-5-yl}-N-[3-fluoro-4-(4-methyl-1-piperazinyl)phenyl]-2-pyrimidinamine]
- IC50 (B-Raf): < 100 nM

SMILES: CCNc1nc(-c2cc(C)cc(OC)c2)c(-c2ccnc(Nc3ccc(OC4CCN(CCF)CC4)c(C)c3)n2)o1 [Example 126]
- IC50 (Colo205 tumor cells): 500 to 5000 nM
- IC50 (B-Raf): < 100 nM
- IC50 (SK-MEL-28 tumor cells): 500 to 5000 nM

SMILES: CCc1nc(-c2ccc3cc[nH]c3c2)c(-c2ccnc(Nc3ccc(OC4CCN(CCS(C)(=O)=O)CC4)c(F)c3)n2)s1 [Example 68, 4-[2-Ethyl-4-(1H-indol-6-yl)-1,3-thiazol-5-yl]-N-[3-fluoro-4-({1-[2-(methylsulfonyl)ethyl]-4-piperidinyl}oxy)phenyl]-2-pyrimidinamine]
- IC50 (Colo205 tumor cells): 500 to 5000 nM
- IC50 (B-Raf): < 100 nM
- IC50 (SK-MEL-28 tumor cells): 500 to 5000 nM

SMILES: CCNc1nc(-c2cc(OC)cc(OC)c2)c(-c2ccnc(Nc3ccc(N4CCN5CCCCC5C4)c(F)c3)n2)o1 (stereo not shown) [Example 134]
- IC50 (Colo205 tumor cells): 500 to 5000 nM
- IC50 (B-Raf): < 100 nM
- IC50 (SK-MEL-28 tumor cells): 500 to 5000 nM

SMILES: CCc1nc(-c2cc(C)cc(OC)c2)c(-c2ccnc(Nc3ccc(N4CCN5CCOC[C@H]5C4)nc3)n2)s1 [Example 80]
- IC50 (Colo205 tumor cells): > 5000 nM
- IC50 (B-Raf): < 100 nM
- IC50 (SK-MEL-28 tumor cells): > 5000 nM

SMILES: CCNc1nc(-c2cccc(OC)c2F)c(-c2ccnc(Nc3ccc(OC4CCN(CCS(C)(=O)=O)CC4)c(F)c3)n2)s1 [Example 48, 4-{2-(Ethylamino)-4-[2-fluoro-3-(methyloxy)phenyl]-1,3-thiazol-5-yl}-N-[3-fluoro-4-({1-[2-(methylsulfonyl)ethyl]-4-piperidinyl}oxy)phenyl]-2-pyrimidinamine]
- IC50 (Colo205 tumor cells): < 500 nM
- IC50 (B-Raf): < 100 nM
- IC50 (SK-MEL-28 tumor cells): < 500 nM

SMILES: CCNc1nc(-c2cc(OC)cc(OC)c2)c(-c2ccnc(Nc3ccc(N4CCN(C)CC4)c(Cl)c3)n2)o1 [Example 69, 4-[4-[3,5-Bis(methyloxy)phenyl]-2-(ethylamino)-1,3-oxazol-5-yl]-N-[3-chloro-4-(4-methyl-1-piperazinyl)phenyl]-2-pyrimidinamine]
- IC50 (Colo205 tumor cells): < 500 nM
- IC50 (B-Raf): < 100 nM
- IC50 (SK-MEL-28 tumor cells): 500 to 5000 nM

SMILES: Nc1cccc(-c2nc(N3CCCC3)sc2-c2ccnc(Nc3ccc(NCCN4CCCC4)c(F)c3)n2)c1 [Example 109]
- IC50 (Colo205 tumor cells): 500 to 5000 nM
- IC50 (B-Raf): < 100 nM
- IC50 (SK-MEL-28 tumor cells): 500 to 5000 nM

SMILES: COc1cccc(-c2nc(CF)sc2-c2ccnc(Nc3ccc(OCCN4CCCC4)c(F)c3)n2)c1 [Example 73, 4-{2-(Fluoromethyl)-4-[3-(methyloxy)phenyl]-1,3-thiazol-5-yl}-N-(3-fluoro-4-{[2-(1-pyrrolidinyl)ethyl]oxy}phenyl)-2-pyrimidinamine]
- IC50 (Colo205 tumor cells): 500 to 5000 nM
- IC50 (B-Raf): < 100 nM
- IC50 (SK-MEL-28 tumor cells): 500 to 5000 nM

SMILES: COc1cc(OC)cc(-c2nc(C)oc2-c2ccnc(Nc3ccc(OC4CCN(CCS(C)(=O)=O)CC4)c(F)c3)n2)c1 [Example 83]
- IC50 (Colo205 tumor cells): 500 to 5000 nM
- IC50 (B-Raf): 100 to 1000 nM
- IC50 (SK-MEL-28 tumor cells): > 5000 nM

SMILES: CCNc1nc(-c2cc(OC)cc(OC)c2)c(-c2ccnc(Nc3ccc4c(c3)N(C(C)=O)CC4)n2)o1 [Example 122]
- IC50 (Colo205 tumor cells): 500 to 5000 nM
- IC50 (B-Raf): < 100 nM
- IC50 (SK-MEL-28 tumor cells): 500 to 5000 nM

SMILES: CCNc1nc(-c2cc(C)cc(OC)c2)c(-c2ccnc(Nc3ccc(N4CCN(CCOC)CC4)c(C(=O)O)c3)n2)o1 [Example 130]
- IC50 (Colo205 tumor cells): 500 to 5000 nM
- IC50 (B-Raf): < 100 nM
- IC50 (SK-MEL-28 tumor cells): 500 to 5000 nM

SMILES: COc1cc(OC)cc(-c2nc(N(C)C)sc2-c2ccnc(Nc3ccc(OC4CCN(CCS(C)(=O)=O)CC4)c(F)c3)n2)c1 [Example 24, 4-[4-[3,5-bis(methyloxy)phenyl]-2-(dimethylamino)-1,3-thiazol-5-yl]-N-[3-fluoro-4-({1-[2-(methylsulfonyl)ethyl]-4-piperidinyl}oxy)phenyl]-2-pyrimidinamine]
- IC50 (Colo205 tumor cells): < 500 nM
- IC50 (B-Raf): < 100 nM
- IC50 (SK-MEL-28 tumor cells): 500 to 5000 nM

SMILES: CCNc1nc(-c2cc(C)cc(OC)c2)c(-c2ccnc(Nc3ccc(N4CCN(C(C)=O)CC4)nc3)n2)o1 [Example 100]
- IC50 (Colo205 tumor cells): < 500 nM
- IC50 (B-Raf): < 100 nM
- IC50 (SK-MEL-28 tumor cells): < 500 nM

SMILES: CCNc1nc(-c2cc(OC)cc(OC)c2)c(-c2ccnc(Nc3cc(F)c(OC4CCN(CCF)CC4)c(F)c3)n2)o1 [Example 93]
- IC50 (Colo205 tumor cells): 500 to 5000 nM
- IC50 (B-Raf): < 100 nM
- IC50 (SK-MEL-28 tumor cells): 500 to 5000 nM

SMILES: CCNc1nc(-c2cccc(OC)c2)c(-c2ccnc(Nc3ccc(CCN4CCN(S(C)(=O)=O)CC4)nc3)n2)s1 [Example 40, 4-{2-(Ethylamino)-4-[3-(methyloxy)phenyl]-1,3-thiazol-5-yl}-N-(6-{2-[4-(methylsulfonyl)-1-piperazinyl]ethyl}-3-pyridinyl)-2-pyrimidinamine]
- IC50 (Colo205 tumor cells): < 500 nM
- IC50 (B-Raf): < 100 nM
- IC50 (SK-MEL-28 tumor cells): 500 to 5000 nM

SMILES: CCNc1nc(-c2ccnc(O)c2)c(-c2ccnc(Nc3ccc(NCCN4CCCC4)c(Cl)c3)n2)s1 [Example 110]
- IC50 (Colo205 tumor cells): 500 to 5000 nM
- IC50 (B-Raf): < 100 nM
- IC50 (SK-MEL-28 tumor cells): 500 to 5000 nM

SMILES: CCNc1nc(-c2cc(OC)cc(OC)c2)c(-c2ccnc(Nc3ccc(N4CCN(C(=O)OCC)CC4)nc3)n2)o1 [Example 121]
- IC50 (Colo205 tumor cells): > 5000 nM
- IC50 (B-Raf): < 100 nM
- IC50 (SK-MEL-28 tumor cells): > 5000 nM

SMILES: COc1cc(OC)cc(-c2nc(N)oc2-c2ccnc(Nc3ccc(N4CCN(C)CC4)c(F)c3)n2)c1 [Example 86]
- IC50 (Colo205 tumor cells): 500 to 5000 nM
- IC50 (B-Raf): < 100 nM
- IC50 (SK-MEL-28 tumor cells): 500 to 5000 nM

SMILES: COc1cc(OC)cc(-c2nc(N)oc2-c2ccnc(Nc3ccc(OC4CCN(CCS(C)(=O)=O)CC4)c(F)c3)n2)c1 [Example 75, 4-{2-Amino-4-[3,5-bis(methyloxy)phenyl]-1,3-oxazol-5-yl}-N-[3-fluoro-4-({1-[2-(methylsulfonyl)ethyl]-4-piperidinyl}oxy)phenyl]-2-pyrimidinamine]
- IC50 (Colo205 tumor cells): 500 to 5000 nM
- IC50 (B-Raf): < 100 nM
- IC50 (SK-MEL-28 tumor cells): 500 to 5000 nM

SMILES: CCNc1nc(-c2ccnc(OC)c2)c(-c2ccnc(Nc3ccc(OCCN4CCCC4)c(Cl)c3)n2)s1 [Example 58, N-(3-Chloro-4-{[2-(1-pyrrolidinyl)ethyl]oxy}phenyl)-4-{2-(ethylamino)-4-[2-(methyloxy)-4-pyridinyl]-1,3-thiazol-5-yl}-2-pyrimidinamine]
- IC50 (Colo205 tumor cells): < 500 nM
- IC50 (B-Raf): < 100 nM
- IC50 (SK-MEL-28 tumor cells): < 500 nM

SMILES: CCc1nc(-c2cc(OC)cc(OC)c2)c(-c2ccnc(Nc3ccc(N4CCN(C)CC4)c(F)c3)n2)o1 [Example 85]
- IC50 (Colo205 tumor cells): 500 to 5000 nM
- IC50 (B-Raf): < 100 nM
- IC50 (SK-MEL-28 tumor cells): 500 to 5000 nM

SMILES: CCNc1nc(-c2cc(C)cc(OC)c2)c(-c2ccnc(Nc3ccc(N4CCOCC4)c(C(=O)O)c3)n2)s1 [Example 26, 5-[(4-{2-(Ethylamino)-4-[3-methyl-5-(methyloxy)phenyl]-1,3-thiazol-5-yl}-2-pyrimidinyl)amino]-2-(4-morpholinyl)benzoic acid]
- IC50 (Colo205 tumor cells): < 500 nM
- IC50 (B-Raf): < 100 nM
- IC50 (SK-MEL-28 tumor cells): < 500 nM

SMILES: CCNc1nc(-c2ccnc(O)c2)c(-c2ccnc(Nc3ccc(N4CCS(=O)(=O)CC4)nc3)n2)s1 [Example 79]
- IC50 (Colo205 tumor cells): > 5000 nM
- IC50 (B-Raf): < 100 nM
- IC50 (SK-MEL-28 tumor cells): > 5000 nM

SMILES: COc1cc(OC)cc(-c2nc(C)oc2-c2ccnc(Nc3ccc(N4CCN(C)CC4)c(F)c3)n2)c1 [Example 84]
- IC50 (Colo205 tumor cells): 500 to 5000 nM
- IC50 (B-Raf): < 100 nM
- IC50 (SK-MEL-28 tumor cells): 500 to 5000 nM

SMILES: CCNc1nc(-c2cc(C)cc(OC)c2)c(-c2ccnc(Nc3ccc(N4CCN5CCCCC5C4)c(F)c3)n2)s1 (stereo not shown) [Example 114]
- IC50 (Colo205 tumor cells): 500 to 5000 nM
- IC50 (B-Raf): < 100 nM
- IC50 (SK-MEL-28 tumor cells): 500 to 5000 nM

SMILES: CCNc1nc(-c2cc(OC)cc(OC)c2)c(-c2ccnc(Nc3ccc(OC4CCN(CCF)CC4)c(C)c3)n2)o1 [Example 88]
- IC50 (Colo205 tumor cells): 500 to 5000 nM
- IC50 (B-Raf): < 100 nM
- IC50 (SK-MEL-28 tumor cells): 500 to 5000 nM

SMILES: COc1cccc(-c2nc(C(C)C)sc2-c2ccnc(Nc3ccc(NCCN4CCCC4)cc3)n2)c1 [Example 76, N-(4-{2-(1-Methylethyl)-4-[3-(methyloxy)phenyl]-1,3-thiazol-5-yl}-2-pyrimidinyl)-N′-[2-(1-pyrrolidinyl)ethyl]-1,4-benzenediamine]
- IC50 (Colo205 tumor cells): 500 to 5000 nM
- IC50 (B-Raf): < 100 nM
- IC50 (SK-MEL-28 tumor cells): 500 to 5000 nM

SMILES: CCNc1nc(-c2ccc(C)c(OC)c2)c(-c2ccnc(Nc3ccc(OCCN4CCCC4)c(C#N)c3)n2)s1 [Example 50, 5-[(4-{2-(Ethylamino)-4-[4-methyl-3-(methyloxy)phenyl]-1,3-thiazol-5-yl}-2-pyrimidinyl)amino]-2-{[2-(1-pyrrolidinyl)ethyl]oxy}benzonitrile]
- IC50 (Colo205 tumor cells): < 500 nM
- IC50 (B-Raf): < 100 nM
- IC50 (SK-MEL-28 tumor cells): 500 to 5000 nM
